Assay results taken from PubChem BioAssay AID194 (DTP/NCI, 2004).
Several values for one entry are separate records, joined by “and”; a condition that tells them apart may be missing. Equal values may be shown once. Records with an inconclusive call do not appear. Rule for the calls: active = survival T/C of 150% or more; inactive = T/C below 125% in these data.

System: BDF1 mice, B16 melanoma s.c., survival/tumor T/C
Assay: NCI In Vivo Anticancer Drug Screen. Data for tumor model B16 Melanoma (subcutaneous) in B6D2F1 (BDF1) mice
Experimental: The antitumor activity of compounds was measured in mice bearing transplantable tumors. Survival or tumor size were measured and the results are expressed as the measurement made in the treated group (T) divided by the measurement made in the vehicle treated control group (C). The tumor model used in this assay is B16 Melanoma (subcutaneous) in B6D2F1 (BDF1) mice

[1] = endpoint: median survival time, dose: 1.0 mg/kg/injection, schedule: Q01DX009 (ip), vehicle: saline, higher = longer survival
[2] = endpoint: median survival time, dose: 2.0 mg/kg/injection, schedule: Q01DX009 (ip), vehicle: saline, higher = longer survival
[3] = endpoint: median survival time, dose: 2.0 mg/kg/injection, schedule: Q01DX009 (ip), vehicle: water, higher = longer survival
[4] = endpoint: median survival time, dose: 20.0 mg/kg/injection, schedule: Q01DX009 (ip), vehicle: saline, higher = longer survival
[5] = endpoint: median survival time, dose: 3.0 mg/kg/injection, schedule: Q01DX009 (ip), vehicle: saline, higher = longer survival

Measured: T/C

Cc1c(N)nc([C@H](CC(N)=O)NC[C@H](N)C(N)=O)nc1C(=O)N[C@H](C(=O)N[C@H](C)[C@@H](O)CC(=O)N[C@H](C(=O)NC(O[C@@H]1O[C@@H](C)[C@@H](N)[C@@H](O)[C@H]1O)C(O)c1nc(-c2nc(C(=O)NCCCCN)cs2)cs1)[C@@H](C)O)[C@@H](O[C@@H]1O[C@@H](CO)[C@@H](O)[C@H](O)[C@@H]1O[C@H]1O[C@H](CO)[C@@H](O)[C@H](OC(N)=O)[C@@H]1O)c1c[nH]cn1 (some centres not stated)
active: [1] 180 % of control | [2] 180 % of control | endpoint: median survival time, dose: 4.0 mg/kg/injection, schedule: Q01DX009 (ip), vehicle: saline, higher = longer survival 180 % of control | endpoint: median survival time, dose: 8.0 mg/kg/injection, schedule: Q01DX009 (ip), vehicle: saline, higher = longer survival 206 % of control | endpoint: median survival time, dose: 12.0 mg/kg/injection, schedule: Q01DX009 (ip), vehicle: saline, higher = longer survival 174 % of control | endpoint: median survival time, dose: 16.0 mg/kg/injection, schedule: Q01DX009 (ip), vehicle: saline, higher = longer survival 180 % of control
inactive: endpoint: median survival time, dose: 0.12 mg/kg/injection, schedule: Q01DX009 (ip), vehicle: water, higher = longer survival 109 % of control | endpoint: median survival time, dose: 0.25 mg/kg/injection, schedule: Q01DX009 (ip), vehicle: water, higher = longer survival 89 % of control | [3] 91 % of control

CN(Cc1cnc2nc(N)nc(N)c2n1)c1ccc(C(=O)N[C@@H](CCC(=O)O)C(=O)O)cc1
inactive: endpoint: median survival time, dose: 0.5 mg/kg/injection, schedule: Q01DX009 (ip), vehicle: saline with Tween-80, higher = longer survival 100 % of control | endpoint: median survival time, dose: 1.0 mg/kg/injection, schedule: Q01DX009 (ip), vehicle: saline with Tween-80, higher = longer survival 100 % of control | endpoint: median survival time, dose: 2.0 mg/kg/injection, schedule: Q01DX009 (ip), vehicle: saline with Tween-80, higher = longer survival 89 % of control
81 % of control: endpoint: median tumor weight (est.), dose: 1.0 mg/kg/injection, schedule: Q01DX009 (ip), vehicle: saline with Tween-80, higher = larger tumour
173 % of control: endpoint: median tumor weight (est.), dose: 0.5 mg/kg/injection, schedule: Q01DX009 (ip), vehicle: saline with Tween-80, higher = larger tumour

CS(=O)(=O)OCCCNCCCOS(C)(=O)=O
inactive: endpoint: median survival time, dose: 5.0 mg/kg/injection, schedule: Q01DX009 (ip), vehicle: saline, higher = longer survival 106 % of control | endpoint: median survival time, dose: 10.0 mg/kg/injection, schedule: Q01DX009 (ip), vehicle: saline, higher = longer survival 110 % of control | [4] 92 % of control

Cc1c(N)nc([C@H](CC(N)=O)NC[C@H](N)C(N)=O)nc1C(=O)N[C@H](C(=O)N[C@H](C)[C@@H](O)[C@H](C)C(=O)N[C@H](C(=O)NCCc1nc(-c2nc(C(=O)NCCC[S+](C)C)cs2)cs1)[C@@H](C)O)C(OC1OC(CO)C(O)C(O)C1OC1OC(CO)C(O)C(OC(N)=O)C1O)c1cnc[nH]1 (some centres not stated)
22 % of control and 43 % of control: endpoint: median tumor weight (est.), dose: 12.0 mg/kg/injection, schedule: Q01DX009 (ip), vehicle: saline, higher = larger tumour
inactive: [1] 120 % of control | endpoint: median survival time, dose: 3.0 mg/kg/injection, schedule: Q01DX005 (ip), vehicle: water, higher = longer survival 118 % of control | [5] 119 % of control | endpoint: median survival time, dose: 3.0 mg/kg/injection, schedule: Q01DX009 (ip), vehicle: water, higher = longer survival 96 % of control | endpoint: median survival time, dose: 6.0 mg/kg/injection, schedule: Q01DX005 (ip), vehicle: water, higher = longer survival 118 % of control | endpoint: median survival time, dose: 6.0 mg/kg/injection, schedule: Q01DX009 (ip), vehicle: saline, higher = longer survival 121 % of control | endpoint: median survival time, dose: 6.0 mg/kg/injection, schedule: Q01DX009 (ip), vehicle: water, higher = longer survival 109 % of control | endpoint: median survival time, dose: 12.0 mg/kg/injection, schedule: Q01DX009 (ip), vehicle: water, higher = longer survival 112 % of control | endpoint: median survival time, dose: 16.0 mg/kg/injection, schedule: Q01DX010 (ip), vehicle: water, higher = longer survival 93 % of control | endpoint: median survival time, dose: 24.0 mg/kg/injection, schedule: Q01DX009 (ip), vehicle: saline, higher = longer survival 112 % of control | endpoint: median survival time, dose: 25.0 mg/kg/injection, schedule: Q01DX009 (ip), vehicle: Klucel (hydroxypropylcellulose) (HPC), higher = longer survival 100 % of control
33 % of control: endpoint: median tumor weight (est.), dose: 16.0 mg/kg/injection, schedule: Q01DX009 (ip), vehicle: water, higher = larger tumour
18 % of control and 27 % of control: endpoint: median tumor weight (est.), dose: 24.0 mg/kg/injection, schedule: Q01DX009 (ip), vehicle: saline, higher = larger tumour
active: [3] 152 % of control and 160 % of control | endpoint: median survival time, dose: 3.12 mg/kg/injection, schedule: Q01DX009 (ip), vehicle: Klucel (hydroxypropylcellulose) (HPC), higher = longer survival 171 % of control | endpoint: median survival time, dose: 4.0 mg/kg/injection, schedule: Q01DX009 (ip), vehicle: water, higher = longer survival 165 % of control and 179 % of control | endpoint: median survival time, dose: 6.25 mg/kg/injection, schedule: Q01DX009 (ip), vehicle: Klucel (hydroxypropylcellulose) (HPC), higher = longer survival 175 % of control | endpoint: median survival time, dose: 8.0 mg/kg/injection, schedule: Q01DX009 (ip), vehicle: water, higher = longer survival 162 % of control and 185 % of control | endpoint: median survival time, dose: 12.5 mg/kg/injection, schedule: Q01DX009 (ip), vehicle: Klucel (hydroxypropylcellulose) (HPC), higher = longer survival 168 % of control | endpoint: median survival time, dose: 16.0 mg/kg/injection, schedule: Q01DX009 (ip), vehicle: water, higher = longer survival 158 % of control (2×) and 159 % of control | [4] 161 % of control | endpoint: median survival time, dose: 32.0 mg/kg/injection, schedule: Q01DX009 (ip), vehicle: water, higher = longer survival 171 % of control
47 % of control: endpoint: median tumor weight (est.), dose: 8.0 mg/kg/injection, schedule: Q01DX009 (ip), vehicle: water, higher = larger tumour

COc1cc([C@@H]2c3cc4c(cc3[C@@H](OC3OC5COC(C)OC5C(O)C3O)[C@H]3COC(=O)[C@H]23)OCO4)cc(OC)c1O (some centres not stated)
active: [2] 169 % of control | endpoint: median survival time, dose: 40.0 mg/kg/injection, schedule: Q04DX003 (ip), vehicle: saline, higher = longer survival 156 % of control
inactive: [5] 117 % of control | endpoint: median survival time, dose: 34.0 mg/kg/injection, schedule: Q01DX001 (ip), vehicle: saline, higher = longer survival 117 % of control | endpoint: median survival time, dose: 50.0 mg/kg/injection, schedule: Q01DX001 (ip), vehicle: saline, higher = longer survival 117 % of control

OC(CCl)CN1CC[N+]2(CC1)CC[N+]1(CCN(CC(O)CCl)CC1)CC2 (configuration not stated)
inactive: endpoint: median survival time, dose: 200.0 mg/kg/injection, schedule: Q01DX009 (ip), vehicle: saline, higher = longer survival 112 % of control | endpoint: median survival time, dose: 670.0 mg/kg/injection, schedule: Q01DX001 (ip), vehicle: saline, higher = longer survival 108 % of control | endpoint: median survival time, dose: 1000.0 mg/kg/injection, schedule: Q01DX001 (ip), vehicle: saline, higher = longer survival 92 % of control | endpoint: median survival time, dose: 1500.0 mg/kg/injection, schedule: Q01DX001 (ip), vehicle: saline, higher = longer survival 120 % of control
active: endpoint: median survival time, dose: 134.0 mg/kg/injection, schedule: Q01DX007 (ip), vehicle: saline, higher = longer survival 162 % of control | endpoint: median survival time, dose: 300.0 mg/kg/injection, schedule: Q01DX007 (ip), vehicle: saline, higher = longer survival 173 % of control | endpoint: median survival time, dose: 300.0 mg/kg/injection, schedule: Q01DX009 (ip), vehicle: saline, higher = longer survival 161 % of control

O=NN(CCF)C(=O)NCCO
inactive: endpoint: median survival time, dose: 3.11 mg/kg/injection, schedule: Q01DX007 (ip), vehicle: water, higher = longer survival 98 % of control | endpoint: median survival time, dose: 5.18 mg/kg/injection, schedule: Q01DX007 (ip), vehicle: water, higher = longer survival 112 % of control | endpoint: median survival time, dose: 8.64 mg/kg/injection, schedule: Q01DX007 (ip), vehicle: water, higher = longer survival 123 % of control

COC1C(C)OC(OC2CC(C)(O)Cc3cc4c(c(O)c32)C(=O)c2c(O)cc3c(c2C4=O)OC2OC3(C)C(O)C(N(C)C)C2O)C(OC)C1(C)OC (configuration not stated)
inactive: endpoint: median survival time, dose: 2.5 mg/kg/injection, schedule: Q01DX009 (ip), vehicle: other, higher = longer survival 90 % of control | endpoint: median survival time, dose: 625.0 micrograms/kg/injection, schedule: Q01DX009 (ip), vehicle: other, higher = longer survival 113 % of control | endpoint: median survival time, dose: 1250.0 micrograms/kg/injection, schedule: Q01DX009 (ip), vehicle: other, higher = longer survival 95 % of control | endpoint: median survival time, dose: 2500.0 micrograms/kg/injection, schedule: Q01DX009 (ip), vehicle: other, higher = longer survival 122 % of control | endpoint: median survival time, dose: 5000.0 micrograms/kg/injection, schedule: Q01DX009 (ip), vehicle: other, higher = longer survival 113 % of control

COc1cc2c(c(OC)c1OC)-c1cc3c(cc1[C@@H](OC(C)=O)[C@@H]1COC(=O)[C@H]1C2)OCO3
inactive: endpoint: median survival time, dose: 0.62 mg/kg/injection, schedule: Q01DX009 (ip), vehicle: Klucel (hydroxypropylcellulose) (HPC), higher = longer survival 100 % of control | endpoint: median survival time, dose: 1.25 mg/kg/injection, schedule: Q01DX009 (ip), vehicle: Klucel (hydroxypropylcellulose) (HPC), higher = longer survival 88 % of control and 89 % of control | endpoint: median survival time, dose: 2.5 mg/kg/injection, schedule: Q01DX009 (ip), vehicle: Klucel (hydroxypropylcellulose) (HPC), higher = longer survival 97 % of control | endpoint: median survival time, dose: 5.0 mg/kg/injection, schedule: Q01DX009 (ip), vehicle: Klucel (hydroxypropylcellulose) (HPC), higher = longer survival 105 % of control and 116 % of control | endpoint: median survival time, dose: 10.0 mg/kg/injection, schedule: Q01DX009 (ip), vehicle: Klucel (hydroxypropylcellulose) (HPC), higher = longer survival 109 % of control

COc1cccc2c1C(=O)c1c(O)c3c(c(O)c1C2=O)C[C@@](O)(C(C)=O)C[C@@H]3OC1CC(N)C(O)C(C)O1 (some centres not stated)
55 % of control: endpoint: median tumor weight (est.), dose: 0.5 mg/kg/injection, schedule: Q01DX009 (ip), vehicle: saline, higher = larger tumour
64 % of control: endpoint: median tumor weight (est.), dose: 0.12 mg/kg/injection, schedule: Q01DX009 (ip), vehicle: saline, higher = larger tumour
inactive: endpoint: median survival time, dose: 0.12 mg/kg/injection, schedule: Q01DX009 (ip), vehicle: saline, higher = longer survival 87 % of control and 105 % of control
86 % of control and 100 % of control: endpoint: median tumor weight (est.), dose: 0.25 mg/kg/injection, schedule: Q01DX009 (ip), vehicle: saline, higher = larger tumour

c1ccc([As+](c2ccccc2)(c2ccccc2)c2ccccc2)cc1
inactive: endpoint: median survival time, dose: 1.87 mg/kg/injection, schedule: Q01DX009 (ip), vehicle: Klucel (hydroxypropylcellulose) (HPC), higher = longer survival 95 % of control | endpoint: median survival time, dose: 3.75 mg/kg/injection, schedule: Q01DX009 (ip), vehicle: Klucel (hydroxypropylcellulose) (HPC), higher = longer survival 109 % of control
